# Values joined by “and” are separate entries in the source; they are usually repeats but may differ in a detail not shown here. Equal values may be shown once. “Also recorded” adds a separate entry of the source.
# What was measured:
# [1] = test system: diaphorase; assay: Effect of concentrations of tetrazolium salts on formation of formazan dyes (FIGS. 4A-4G); assay type: biochemical; details: 15 mM NADH+H, 20 μg diaphorase, pH 7.5; FIGS. 4A to 4G
# Procedure: On the idea that higher concentrations of tetrazolium salts in the assay buffer would likely result in more formazan dyes in the reaction, various concentrations of tetrazolium salts were added to a reaction buffer and the formation of formazan dyes were measured at 0, 30 and 60 minutes. […] The reactions were performed at room temperature. Absorbance was taken at 0, 30 and 60 minutes.
# [2] = test system: diaphorase; assay: Formation of formazan dyes: NADH and diaphorase, absence of malate (TABLE 7); assay type: biochemical, Clostridium kluyveri; details: NADH and diaphorase, absence of malate
# [3] = test system: diaphorase; assay: Formation of formazan dyes: NADH, diaphorase and malate (TABLE 8); assay type: biochemical, Clostridium kluyveri
# [4] = test system: Malate dehydrogenase and diaphorase; assay: Formation of formazan dyes: Malate dehydrogenase and diaphorase, absence of malate (TABLE 9); assay type: biochemical, pig heart
# [5] = test system: Malate dehydrogenase and diaphorase; assay: Formation of formazan dyes: Malate dehydrogenase, diaphorase and malate (TABLE 10); assay type: biochemical, pig heart
# [6] = test system: oral lavage; assay: Formation of formazan dyes: oral lavage and diaphorase, not malate (TABLE 11); assay type: biochemical, human
# [7] = test system: oral lavage; assay: Formation of formazan dyes: oral lavage, malate and diaphorase (TABLE 12); assay type: biochemical, human; details: oral lavage, malate and diaphorase
# [8] = test system: diaphorase; assay: Formation of formazan dyes: only diaphorase, not malate (TABLE 13); assay type: biochemical, Clostridium kluyveri; details: mean of three experiments
# [9] = test system: diaphorase; assay: Formation of formazan dyes: only diaphorase and malate (TABLE 14); assay type: biochemical, Clostridium kluyveri; details: mean of three experiments
# [10] = Formation of formazan dyes: NADH and 1-methoxy PMS, absence of malate (TABLE 15); assay type: biochemical; details: monosodium salt
# [11] = Formation of formazan dyes: NADH, malate and 1-methoxy PMS (TABLE 16); assay type: biochemical; details: monosodium salt
# [12] = test system: oral lavage; assay: Formation of formazan dyes: oral lavage and 1-Methoxy PMS, absence of malate (TABLE 19); assay type: biochemical, human; details: monosodium salt
# [13] = test system: oral lavage; assay: Formation of formazan dyes: oral lavage, malate and 1-Methoxy PMS (TABLE 20); assay type: biochemical, human; details: monosodium salt
# [14] = Formation of formazan dyes: control buffer and 1-Methoxy PMS, absence of malate (TABLE 21); assay type: biochemical; details: monosodium salt
# [15] = Formation of formazan dyes: control buffer, malate and 1-Methoxy PMS (TABLE 22); assay type: biochemical
# [16] = biological target: T1, Malate dehydrogenase (Sus scrofa, UniProt P00346); assay: Formation of formazan dyes: Malate dehydrogenase and 1-Methoxy PMS, absence of malate (TABLE 17); assay type: biochemical, pig heart; parameters: L-malate dehydrogenase (pig heart); purchased Sigma-Aldrich 10127248001 / 10127914001
# T1 sequence (P00346 25-338): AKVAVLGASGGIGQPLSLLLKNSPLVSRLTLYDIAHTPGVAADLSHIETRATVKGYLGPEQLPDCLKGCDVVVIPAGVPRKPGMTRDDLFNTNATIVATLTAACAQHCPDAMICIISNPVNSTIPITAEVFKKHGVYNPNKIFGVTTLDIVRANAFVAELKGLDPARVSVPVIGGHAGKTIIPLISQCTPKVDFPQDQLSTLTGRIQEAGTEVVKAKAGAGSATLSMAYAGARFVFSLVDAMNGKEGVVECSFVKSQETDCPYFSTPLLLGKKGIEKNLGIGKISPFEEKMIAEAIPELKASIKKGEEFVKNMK
# [17] = biological target: T1, Malate dehydrogenase; assay: Formation of formazan dyes: Malate dehydrogenase, malate and 1-Methoxy PMS (TABLE 18); assay type: biochemical, pig heart; parameters: L-malate dehydrogenase (pig heart); purchased Sigma-Aldrich 10127248001 / 10127914001; details: monosodium salt
structure (smiles),measurement,setting,value
COc1cc([N+](=O)[O-])ccc1-[n+]1nc(-c2ccccc2S(=O)(=O)O)nn1-c1ccc([N+](=O)[O-])cc1 [EZMTT],concentration of tetrazolium salt at which absorbance reached peaks,[1],2 mM
"O=[N+]([O-])c1ccc(-[n+]2nc(-c3ccc(S(=O)(=O)[O-])cc3S(=O)(=O)[O-])nn2-c2ccc(I)cc2)cc1.[Na+] [WST-1, 2-(4-Iodophenyl)-3-(4-nitrophenyl)-5-(2,4-disulfophenyl)-2H-tetrazolium, monosodium salt]","Formation of formazan dyes, absorbance, Means 0 h",[2]; 0 h,3.54
same,"Formation of formazan dyes, absorbance, Means 1 h",[2]; 1 h,3.60
same,"Formation of formazan dyes, absorbance, Means 2 h",[2]; 2 h,3.59
same,"Formation of formazan dyes, absorbance, Means 3 h",[2]; 3 h,3.60
same,"Formation of formazan dyes, absorbance, Means 4 h",[2]; 4 h,3.59
same,"Formation of formazan dyes, absorbance, Means 6 h",[2]; 6 h,3.59
same,"Formation of formazan dyes, absorbance, Means 8 h",[2]; 8 h,3.55
same,"Formation of formazan dyes, absorbance, Means 10 h",[2]; 10 h,3.52
same,"Formation of formazan dyes, absorbance, Means 12 h",[2]; 12 h,3.45
same,"Formation of formazan dyes, absorbance, Means 0 h","[3]; NADH, diaphorase and malate, 0 h",2.63
same,"Formation of formazan dyes, absorbance, Means 1 h","[3]; NADH, diaphorase and malate, 1 h",2.60
same,"Formation of formazan dyes, absorbance, Means 2 h","[3]; NADH, diaphorase and malate, 2 h",2.59
same,"Formation of formazan dyes, absorbance, Means 3 h","[3]; NADH, diaphorase and malate, 3 h",2.57
same,"Formation of formazan dyes, absorbance, Means 4 h","[3]; NADH, diaphorase and malate, 4 h",2.55
same,"Formation of formazan dyes, absorbance, Means 6 h","[3]; NADH, diaphorase and malate, 6 h",2.52
same,"Formation of formazan dyes, absorbance, Means 8 h","[3]; NADH, diaphorase and malate, 8 h",2.48
same,"Formation of formazan dyes, absorbance, Means 10 h","[3]; NADH, diaphorase and malate, 10 h",2.44
same,"Formation of formazan dyes, absorbance, Means 12 h","[3]; NADH, diaphorase and malate, 12 h",2.38
same,level reduced to formazan dyes in the presence of malate,[3]; TABLE 8 compared with TABLE 7,lower level
same,"Formation of formazan dyes, absorbance, Means 0 h","[4]; Malate dehydrogenase and diaphorase, absence of malate, 0 h",0.76
same,"Formation of formazan dyes, absorbance, Means 1 h","[4]; Malate dehydrogenase and diaphorase, absence of malate, 1 h",1.13
same,"Formation of formazan dyes, absorbance, Means 2 h","[4]; Malate dehydrogenase and diaphorase, absence of malate, 2 h",1.28
same,"Formation of formazan dyes, absorbance, Means 3 h","[4]; Malate dehydrogenase and diaphorase, absence of malate, 3 h",1.38
same,"Formation of formazan dyes, absorbance, Means 4 h","[4]; Malate dehydrogenase and diaphorase, absence of malate, 4 h",1.47
same,"Formation of formazan dyes, absorbance, Means 6 h","[4]; Malate dehydrogenase and diaphorase, absence of malate, 6 h",1.60
same,"Formation of formazan dyes, absorbance, Means 8 h","[4]; Malate dehydrogenase and diaphorase, absence of malate, 8 h",1.71
same,"Formation of formazan dyes, absorbance, Means 10 h","[4]; Malate dehydrogenase and diaphorase, absence of malate, 10 h",1.78
same,"Formation of formazan dyes, absorbance, Means 12 h","[4]; Malate dehydrogenase and diaphorase, absence of malate, 12 h",1.75
same,reduction of tetrazolium dye in the absence of substrate malate,[4]; malate dehydrogenase and diaphorase (TABLE 9),partially reduced
same,"Formation of formazan dyes, absorbance, Means 0 h","[5]; Malate dehydrogenase, diaphorase and malate, 0 h",0.84
same,"Formation of formazan dyes, absorbance, Means 1 h","[5]; Malate dehydrogenase, diaphorase and malate, 1 h",1.15
same,"Formation of formazan dyes, absorbance, Means 2 h","[5]; Malate dehydrogenase, diaphorase and malate, 2 h",1.31
same,"Formation of formazan dyes, absorbance, Means 3 h","[5]; Malate dehydrogenase, diaphorase and malate, 3 h",1.44
same,"Formation of formazan dyes, absorbance, Means 4 h","[5]; Malate dehydrogenase, diaphorase and malate, 4 h",1.53
same,"Formation of formazan dyes, absorbance, Means 6 h","[5]; Malate dehydrogenase, diaphorase and malate, 6 h",1.69
same,"Formation of formazan dyes, absorbance, Means 8 h","[5]; Malate dehydrogenase, diaphorase and malate, 8 h",1.81
same,"Formation of formazan dyes, absorbance, Means 10 h","[5]; Malate dehydrogenase, diaphorase and malate, 10 h",1.90
same,"Formation of formazan dyes, absorbance, Means 12 h","[5]; Malate dehydrogenase, diaphorase and malate, 12 h",1.96
same,conversion to reduced formazan dyes,"[5]; malate dehydrogenase, diaphorase and malate (TABLE 10), monosodium salt",converted to reduced formazan dyes in a time-dependent fashion; also recorded: able to catalyze the reduction
same,"Formation of formazan dyes, absorbance, Means 0 h","[6]; oral lavage and diaphorase, not malate, 0 h",1.01
same,"Formation of formazan dyes, absorbance, Means 1 h","[6]; oral lavage and diaphorase, not malate, 1 h",1.24
same,"Formation of formazan dyes, absorbance, Means 2 h","[6]; oral lavage and diaphorase, not malate, 2 h",1.28
same,"Formation of formazan dyes, absorbance, Means 3 h","[6]; oral lavage and diaphorase, not malate, 3 h",1.30
same,"Formation of formazan dyes, absorbance, Means 4 h","[6]; oral lavage and diaphorase, not malate, 4 h",1.29
same,"Formation of formazan dyes, absorbance, Means 6 h","[6]; oral lavage and diaphorase, not malate, 6 h",1.42
same,"Formation of formazan dyes, absorbance, Means 8 h","[6]; oral lavage and diaphorase, not malate, 8 h",1.34
same,"Formation of formazan dyes, absorbance, Means 10 h","[6]; oral lavage and diaphorase, not malate, 10 h",1.31
same,"Formation of formazan dyes, absorbance, Means 12 h","[6]; oral lavage and diaphorase, not malate, 12 h",1.42
same,reduction to formazan dyes by pooled oral lavage,"[6]; pooled oral lavage of high bleeder group, diaphorase, no added malate (TABLE 11)",partially reduced to formazan dyes
same,"Formation of formazan dyes, absorbance, Means 0 h",[7]; 0 h,0.88
same,"Formation of formazan dyes, absorbance, Means 1 h",[7]; 1 h,1.19
same,"Formation of formazan dyes, absorbance, Means 2 h",[7]; 2 h,1.19
same,"Formation of formazan dyes, absorbance, Means 3 h",[7]; 3 h,1.23
same,"Formation of formazan dyes, absorbance, Means 4 h",[7]; 4 h,1.39
same,"Formation of formazan dyes, absorbance, Means 6 h",[7]; 6 h,1.31
same,"Formation of formazan dyes, absorbance, Means 8 h",[7]; 8 h,1.52
same,"Formation of formazan dyes, absorbance, Means 10 h",[7]; 10 h,1.61
same,"Formation of formazan dyes, absorbance, Means 12 h",[7]; 12 h,1.75
same,"Absorbance, formation of formazan dyes (Means)",[8]; 0 h,0.41
same,"Absorbance, formation of formazan dyes (Means)",[8]; 1 h,0.60
same,"Absorbance, formation of formazan dyes (Means)",[8]; 2 h,0.66
same,"Absorbance, formation of formazan dyes (Means)",[8]; 3 h,0.69
same,"Absorbance, formation of formazan dyes (Means)",[8]; 4 h,0.70
same,"Absorbance, formation of formazan dyes (Means)",[8]; 6 h,0.71
same,"Absorbance, formation of formazan dyes (Means)",[8]; 8 h,0.73
same,"Absorbance, formation of formazan dyes (Means)",[8]; 10 h,0.69
same,"Absorbance, formation of formazan dyes (Means)",[8]; 12 h,0.67
same,"Absorbance, formation of formazan dyes (Means)",[9]; 0 h,0.20
same,"Absorbance, formation of formazan dyes (Means)",[9]; 1 h,0.22
same,"Absorbance, formation of formazan dyes (Means)",[9]; 2 h,0.23
same,"Absorbance, formation of formazan dyes (Means)",[9]; 3 h,0.24
same,"Absorbance, formation of formazan dyes (Means)",[9]; 4 h,0.24
same,"Absorbance, formation of formazan dyes (Means)",[9]; 6 h,0.25
same,"Absorbance, formation of formazan dyes (Means)",[9]; 8 h,0.26
same,"Absorbance, formation of formazan dyes (Means)",[9]; 10 h,0.27
same,"Absorbance, formation of formazan dyes (Means)",[9]; 12 h,0.27
same,"Absorbance, formation of formazan dyes (Means)",[10],2.52 and 2.71 and 2.59 and 2.80
same,"Absorbance, formation of formazan dyes (Means)",[11],1.83 and 1.81 and 1.79
same,"Absorbance, formation of formazan dyes (Means)",[12],1.19 and 1.52 and 1.61 and 1.76
same,"Absorbance, formation of formazan dyes (Means)",[13],1.20 and 1.68 and 2.01 and 2.32
same,"Absorbance, formation of formazan dyes (Means)",[14],0.53 and 0.74 and 0.65 and 0.88
same,Means absorbance 0 h,[15],0.31
same,Means absorbance 1 h,[15],0.31
same,Means absorbance 2 h,[15],0.32
same,Means absorbance 3 h,[15],0.32
same,reduction by malate dehydrogenase alone,[16],did not catalyze the reduction
same,"Absorbance, formation of formazan dyes (Means)",[16]; monosodium salt,0.51 and 0.71 and 0.59 and 0.90
same,"Absorbance, formation of formazan dyes (Means)",[17],0.51 and 0.64 and 0.72 and 0.79
